Laboratory results as given in PubChem BioAssay (NCI).
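Method: 48-hour compound exposure of cells in 96-well plates, five concentrations, linear interpolation of endpoints. GI50: concentration for 50% inhibition of growth. TGI is the concentration that stops growth completely.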

Legend:
Experiment in all cases: growth of human tumour cells (NCI), 48 h
DU-145 prostate = system: DU-145 prostate
SR leukemia = system: SR leukemia
UO-31 renal = system: UO-31 renal
HCC-2998 colon = system: HCC-2998 colon
SN12C renal = system: SN12C renal
UACC-62 melanoma = system: UACC-62 melanoma
HCT-116 colon = system: HCT-116 colon
NCI-H226 lung = system: NCI-H226 lung
NCI-H522 lung = system: NCI-H522 lung
SK-MEL-2 melanoma = system: SK-MEL-2 melanoma
HL-60(TB) leukemia = system: HL-60(TB) leukemia
EKVX NSCLC = system: EKVX NSCLC
RXF 393 renal = system: RXF 393 renal
SW-620 colon = system: SW-620 colon
HOP-62 NSCLC = system: HOP-62 NSCLC
SK-MEL-28 melanoma = system: SK-MEL-28 melanoma
OVCAR-3 ovarian = system: OVCAR-3 ovarian
CAKI-1 renal = system: CAKI-1 renal
A498 renal = system: A498 renal
OVCAR-4 ovarian = system: OVCAR-4 ovarian
U251 CNS = system: U251 CNS
RPMI-8226 leukemia = system: RPMI-8226 leukemia
MALME-3M melanoma = system: MALME-3M melanoma
M14 melanoma = system: M14 melanoma
A549 NSCLC = system: A549 NSCLC
NCI-H460 lung = system: NCI-H460 lung
SNB-75 CNS = system: SNB-75 CNS
HOP-92 NSCLC = system: HOP-92 NSCLC
KM12 colon = system: KM12 colon
NCI/ADR-RES ovarian = system: NCI/ADR-RES ovarian
ACHN renal = system: ACHN renal
K-562 leukemia = system: K-562 leukemia
COLO 205 colon = system: COLO 205 colon
SK-OV-3 ovarian = system: SK-OV-3 ovarian
SF-295 CNS = system: SF-295 CNS
NCI-H23 lung = system: NCI-H23 lung
MDA-MB-231 breast = system: MDA-MB-231 breast
TK-10 renal = system: TK-10 renal
LOX IMVI melanoma = system: LOX IMVI melanoma
MCF7 breast = system: MCF7 breast
HCT-15 colon = system: HCT-15 colon
SNB-19 CNS = system: SNB-19 CNS
MDA-MB-435 = system: MDA-MB-435
MOLT-4 leukemia = system: MOLT-4 leukemia
UACC-257 melanoma = system: UACC-257 melanoma
PC-3 prostate = system: PC-3 prostate
SF-268 CNS = system: SF-268 CNS
SK-MEL-5 melanoma = system: SK-MEL-5 melanoma
BT-549 breast = system: BT-549 breast
SF-539 CNS = system: SF-539 CNS
IGROV1 ovarian = system: IGROV1 ovarian
OVCAR-5 ovarian = system: OVCAR-5 ovarian
OVCAR-8 ovarian = system: OVCAR-8 ovarian
CCRF-CEM leukemia = system: CCRF-CEM leukemia
HS 578T breast = system: HS 578T breast
786-0 renal = system: 786-0 renal
HT29 colon = system: HT29 colon

N=C(N)c1ccc(-c2ccc(-c3ccc(F)cc3)s2)cc1
GI50 (DU-145 prostate): 1.63 µM
TGI (DU-145 prostate): 2.98 µM
GI50 (SR leukemia): 0.307 µM
TGI (SR leukemia): > 100 µM

COc1ccc(/C(C)=C(\c2ccc(Cl)cc2)c2ccc(OCCN3CCCC3)cc2)cc1
GI50 (UO-31 renal): 2.88 µM
TGI (UO-31 renal): 7.12 µM
GI50 (HCC-2998 colon): 3.06 µM
TGI (HCC-2998 colon): 7.41 µM
GI50 (DU-145 prostate): 4.89 µM
TGI (DU-145 prostate): 9.4 µM
GI50 (SN12C renal): 4.9 µM
TGI (SN12C renal): 9.63 µM
GI50 (UACC-62 melanoma): 2.15 µM
TGI (UACC-62 melanoma): 6.53 µM
GI50 (HCT-116 colon): 1.55 µM
TGI (HCT-116 colon): 5.78 µM
GI50 (NCI-H226 lung): 5.54 µM
TGI (NCI-H226 lung): 11.6 µM
GI50 (NCI-H522 lung): 4.39 µM
TGI (NCI-H522 lung): 9.11 µM
GI50 (SK-MEL-2 melanoma): 6.45 µM
TGI (SK-MEL-2 melanoma): 11.6 µM
GI50 (HL-60(TB) leukemia): 4.57 µM
TGI (HL-60(TB) leukemia): 10.9 µM
GI50 (EKVX NSCLC): 2.97 µM
TGI (EKVX NSCLC): 7.3 µM
GI50 (RXF 393 renal): 3.39 µM
TGI (RXF 393 renal): 7.93 µM
GI50 (SW-620 colon): 3.04 µM
TGI (SW-620 colon): 7.33 µM
GI50 (HOP-62 NSCLC): 4.68 µM
TGI (HOP-62 NSCLC): 9.03 µM
GI50 (SK-MEL-28 melanoma): 3.52 µM
TGI (SK-MEL-28 melanoma): 7.54 µM
GI50 (OVCAR-3 ovarian): 5.16 µM
TGI (OVCAR-3 ovarian): 9.79 µM
GI50 (CAKI-1 renal): 4.85 µM
TGI (CAKI-1 renal): 9.29 µM
GI50 (A498 renal): 4.02 µM
TGI (A498 renal): 8.38 µM
GI50 (OVCAR-4 ovarian): 3.61 µM
TGI (OVCAR-4 ovarian): 7.64 µM
GI50 (U251 CNS): 3.9 µM
TGI (U251 CNS): 8.3 µM
GI50 (RPMI-8226 leukemia): 3.66 µM
TGI (RPMI-8226 leukemia): 10 µM
GI50 (MALME-3M melanoma): 2.72 µM
TGI (MALME-3M melanoma): 7.61 µM
GI50 (M14 melanoma): 0.752 µM
TGI (M14 melanoma): 1.95 µM
GI50 (A549 NSCLC): 3.97 µM
TGI (A549 NSCLC): 8.43 µM
GI50 (NCI-H460 lung): 3.36 µM
TGI (NCI-H460 lung): 7.46 µM
GI50 (SNB-75 CNS): 4.29 µM
TGI (SNB-75 CNS): 8.58 µM
GI50 (HOP-92 NSCLC): 4.17 µM
TGI (HOP-92 NSCLC): 8.7 µM
GI50 (KM12 colon): 1.98 µM
TGI (KM12 colon): 6.6 µM
GI50 (NCI/ADR-RES ovarian): 4.54 µM
TGI (NCI/ADR-RES ovarian): 9.36 µM
GI50 (ACHN renal): 5.1 µM
TGI (ACHN renal): 9.62 µM
GI50 (K-562 leukemia): 1.25 µM
TGI (K-562 leukemia): 7.23 µM
GI50 (COLO 205 colon): 3.57 µM
TGI (COLO 205 colon): 7.74 µM
GI50 (SK-OV-3 ovarian): 6.03 µM
TGI (SK-OV-3 ovarian): 10.7 µM
GI50 (SF-295 CNS): 3.23 µM
TGI (SF-295 CNS): 7.25 µM
GI50 (NCI-H23 lung): 4.29 µM
TGI (NCI-H23 lung): 8.98 µM
GI50 (MDA-MB-231 breast): 3.64 µM
TGI (MDA-MB-231 breast): 7.8 µM
GI50 (TK-10 renal): 5.49 µM
TGI (TK-10 renal): 10.4 µM
GI50 (LOX IMVI melanoma): 1.51 µM
TGI (LOX IMVI melanoma): 5.84 µM
GI50 (MCF7 breast): 0.887 µM
TGI (MCF7 breast): 5.83 µM
GI50 (HCT-15 colon): 1.09 µM
TGI (HCT-15 colon): 4.35 µM
GI50 (SNB-19 CNS): 4.54 µM
TGI (SNB-19 CNS): 9.09 µM
GI50 (MDA-MB-435): 1.84 µM
TGI (MDA-MB-435): 6.14 µM
GI50 (MOLT-4 leukemia): 3.88 µM
TGI (MOLT-4 leukemia): 10.9 µM
GI50 (UACC-257 melanoma): 4.6 µM
TGI (UACC-257 melanoma): 9.24 µM
GI50 (PC-3 prostate): 3.39 µM
TGI (PC-3 prostate): 7.52 µM
GI50 (SF-268 CNS): 4.73 µM
TGI (SF-268 CNS): 9.79 µM
GI50 (SK-MEL-5 melanoma): 1.26 µM
TGI (SK-MEL-5 melanoma): 4.64 µM
GI50 (BT-549 breast): 3.82 µM
TGI (BT-549 breast): 8.09 µM
GI50 (SF-539 CNS): 4.32 µM
TGI (SF-539 CNS): 8.59 µM
GI50 (IGROV1 ovarian): 4.13 µM
TGI (IGROV1 ovarian): 8.91 µM
GI50 (OVCAR-5 ovarian): 4.32 µM
TGI (OVCAR-5 ovarian): 8.65 µM
GI50 (OVCAR-8 ovarian): 5.2 µM
TGI (OVCAR-8 ovarian): 10.2 µM
GI50 (CCRF-CEM leukemia): 3.79 µM
TGI (CCRF-CEM leukemia): 11.4 µM
GI50 (HS 578T breast): 4.71 µM
TGI (HS 578T breast): 11.8 µM
GI50 (786-0 renal): 2.43 µM
TGI (786-0 renal): 6.85 µM
GI50 (HT29 colon): 1.15 µM
TGI (HT29 colon): 4.08 µM
